Legend:
Type in all cases: in vivo
[1] = system: galium (catchweed bedstraw, Galium aparine); assay: Test D pre-/postemergence: galium; conditions: Postemergence
Text: (§1) Seeds of plant species selected from bluegrass (annual bluegrass, Poa annua), blackgrass (Alopecurus myosuroides), canarygrass (Phalaris minor), chickweed (common chickweed, Stellaria media), galium (catchweed bedstraw, Galium aparine), bromegrass, downy (downy bromegrass, Bromus tectorum), field poppy (Papaver rhoeas), field violet (Viola arvensis), foxtail, green (green foxtail, Setaria viridis), deadnettle (henbit deadnettle, Lamium amplexicaule), ryegrass, Italian (Italian ryegrass, Lolium multiflorum), kochia (Kochia scoparia), lambsquarters (Chenopodium album), oilseed rape (Brassica napus), pigweed (Amaranthus retroflexus), Russian thistle (Salsola iberica), chamomile (scentless chamomile, Matricaria inodora), speedwell (bird's-eye speedwell, Veronica persica), barley, spring (spring barley, Hordeum vulgare), wheat, spring (spring wheat, Triticum aestivum), buckwheat, wild (wild buckwheat, Polygonum convolvulus), mustard, wild (wild mustard, Sinapis arvensis), oat, wild (wild oat, Avena fatua), radish, wild (wild radish, Raphanus raphanistrum), windgrass (Apera spica-venti), barley, winter (winter barley, Hordeum vulgare), and wheat, winter (winter wheat, Triticum aestivum) were planted into a silt loam soil and treated preemergence with test chemicals formulated in a non-phytotoxic solvent mixture which included a surfactant. At the same time, these same crop and weed species were planted in pots containing the planting medium comprising spaghnum peat moss, vermiculite, wetting agent and starter nutrients and treated with postemergence applications of the test chemicals formulated in the same manner. Plants ranged in height from 2 to 18 cm (1- to 4-leaf stage).
(§2) Treated plants and controls were maintained in a controlled growth environment for 14 to 21 days after which time all species were compared to controls and visually evaluated. Plant response ratings, summarized in Table D, are based on a scale of 0 to 100 where 0 is no effect and 100 is complete control. A dash (-) response means no test result.

[2] = system: kochia (Kochia scoparia); assay: Test D pre-/postemergence: kochia; conditions: Postemergence
Text: as §1, §2

[3] = system: soybean (Glycine max); assay: Test C pre-/postemergence: soybean
Text: (§3) Seeds of plant species selected from blackgrass (Alopecurus myosuroides), bromegrass, downy (downy bromegrass, Bromus tectorum), foxtail, green (green foxtail, Setaria viridis), ryegrass, Italian (Italian ryegrass, Lolium multiflorum), winter wheat (Triticum aestivum), wild oat (Avena fatua), galium (catchweed bedstraw, Galium aparine), bermudagrass (Cynodon dactylon), surinam grass (Brachiaria decumbens), cocklebur (common cocklebur, Xanthium strumarium), corn (Zea mays), large crabgrass (Digitaria sanguinalis), woolly cupgrass (Eriochloa villosa), foxtail, giant (giant foxtail, Setaria faberii), goosegrass (Eleusine indica), johnsongrass (Sorghum halepense), kochia (Kochia scoparia), lambsquarters (Chenopodium album), morningglory (Ipomoea coccinea), nightshade (eastern black nightshade, Solanum ptycanthum), nutsedge, yellow (yellow nutsedge, Cyperus esculentus), pigweed (Amaranthus retroflexus), ragweed (common ragweed, Ambrosia elation), soybean (Glycine max), common (oilseed) sunflower (Helianthus annuus), Russian thistle (Salsola kali) and velvetleaf (Abutilon theophrasti) were planted into a blend of loam soil and sand and treated preemergence with test chemicals formulated in a non-phytotoxic solvent mixture which included a surfactant.
(§4) At the same time, plants selected from these crop and weed species and also barley (winter barley, Hordeum vulgare), canarygrass (Phalaris minor), chickweed (common chickweed, Stellaria media) windgrass (Apera spica-venti) and deadnettle (henbit deadnettle, Lamium amplexicaule) were planted in pots containing Redi-Earth® planting medium (Scotts Company, 14111 Scottslawn Road, Marysville, Ohio 43041) comprising spaghnum peat moss, vermiculite, wetting agent and starter nutrients and treated with postemergence applications of test chemicals formulated in the same manner. Plants ranged in height from 2 to 18 cm (1- to 4-leaf stage) for postemergence treatments.
as §2, with “greenhouse” for “controlled growth environment”, “13” for “14”, “15 days,” for “21 days”, “C,” for “D,”

[4] = system: foxtail, giant (giant foxtail, Setaria faberii); assay: Test C pre-/postemergence: foxtail, giant
Text: as §3, §4
as §2, with “greenhouse” for “controlled growth environment”, “13” for “14”, “15 days,” for “21 days”, “C,” for “D,”

[5] = system: mustard, wild (wild mustard, Sinapis arvensis); assay: Test D pre-/postemergence: mustard, wild; conditions: Postemergence
Text: as §1, §2

[6] = system: blackgrass (Alopecurus myosuroides); assay: Test D pre-/postemergence: blackgrass; conditions: Postemergence
Text: as §1, §2

[7] = system: bromegrass, downy (downy bromegrass, Bromus tectorum); assay: Test D pre-/postemergence: bromegrass, downy; conditions: Postemergence
Text: as §1, §2

[8] = system: oilseed rape (Brassica napus); assay: Test D pre-/postemergence: oilseed rape; conditions: Postemergence
Text: as §1, §2

[9] = system: nightshade (eastern black nightshade, Solanum ptycanthum); assay: Test C pre-/postemergence: nightshade; conditions: Preemergence
Text: as §3, §4
as §2, with “greenhouse” for “controlled growth environment”, “13” for “14”, “15 days,” for “21 days”, “C,” for “D,”

[10] = 31 g ai/ha, scale 0 to 100 (0 no effect, 100 complete control)
[11] = 62 g ai/ha, scale 0 to 100 (0 no effect, 100 complete control)
[12] = 125 g ai/ha, scale 0 to 100, 0 no effect, 100 complete control
[13] = 250 g ai/ha, scale 0 to 100 (0 no effect, 100 complete control)
[14] = Postemergence, 31 g ai/ha, scale 0 to 100 (0 no effect, 100 complete control)
[15] = Postemergence, 62 g ai/ha, scale 0 to 100 (0 no effect, 100 complete control)
[16] = Postemergence, 125 g ai/ha, scale 0 to 100, 0 no effect, 100 complete control
[17] = Postemergence, 250 g ai/ha, scale 0 to 100
[18] = Preemergence, 31 g ai/ha, scale of 0 to 100, 0 is no effect, 100 is complete control
[19] = Preemergence, 62 g ai/ha, scale of 0 to 100, 0 is no effect, 100 is complete control
[20] = Preemergence, 125 g ai/ha, scale 0 to 100, 0 no effect, 100 complete control
[21] = Preemergence, 250 g ai/ha, scale 0 to 100, 0 no effect, 100 complete control

With `Cc1nn(-c2ccnc(C(F)(F)F)c2)nc1Cc1ccnc(C(F)(F)F)c1` [Compound 137] as the compound, how does the “Plant response rating: Galium” value [1, 10] read?
Its value is 20.

What about the “Plant response rating: Galium” value [1, 11] of the same compound?
The value was 40.

And the “Plant response rating: Galium” value [1, 12]?
The value was 75.

What about the “Plant response rating: Galium” value [1, 13] of the same compound?
Its value is 75.

And the “Plant response rating, Galium” value ([1]; 16 g ai/ha, scale 0 to 100)?
The value was 20.

What about the “Plant response rating: Kochia” value [2, 10] of the same compound?
Its value is 85.

And the “Plant response rating: Kochia” value [2, 11]?
The value was 90.

What about the “Plant response rating: Kochia” value [2, 12] of the same compound?
Its value is 95.

And the “Plant response rating: Kochia” value [2, 13]?
The value was 100.

And the “Plant response rating, Kochia” value ([2]; 16 g ai/ha, scale 0 to 100)?
The value was 75.

And the “Plant response rating, Soybean” value [3, 14]?
The value was 40.

And the “Plant response rating, Soybean” value [3, 15]?
The value was 55.

What about the “Plant response rating, Soybean” value [3, 16] of the same compound?
The value was 55.

What about the “Plant response rating, Soybean” value [3, 17] of the same compound?
The value was 60.

What about the “Plant response rating, Foxtail, Giant” value [4, 14] of the same compound?
Its value is 10.

And the “Plant response rating, Foxtail, Giant” value [4, 15]?
Its value is 40.

And the “Plant response rating, Foxtail, Giant” value [4, 17]?
The value was 50.

What about the “Plant response rating: Mustard, Wild” value [5, 10] of the same compound?
The value was 60.

And the “Plant response rating: Mustard, Wild” value [5, 11]?
Its value is 80.

And the “Plant response rating: Mustard, Wild” value [5, 12]?
Its value is 95.

What about the “Plant response rating: Mustard, Wild” value [5, 13] of the same compound?
The value was 100.

What about the “Plant response rating, Mustard, Wild” value ([5]; 16 g ai/ha, scale 0 to 100) of the same compound?
The value was 50.

What about the “Plant response rating: Blackgrass” value [6, 10] of the same compound?
The value was 30.

And the “Plant response rating: Blackgrass” value [6, 11]?
Its value is 50.

What about the “Plant response rating: Blackgrass” value [6, 12] of the same compound?
The value was 70.

And the “Plant response rating: Blackgrass” value [6, 13]?
Its value is 80.

And the “Plant response rating, Blackgrass” value ([6]; 16 g ai/ha, scale 0 to 100)?
Its value is 10.

And the “Plant response rating: Bromegrass, Downy” value [7, 10]?
Its value is 15.

What about the “Plant response rating: Bromegrass, Downy” value [7, 11] of the same compound?
The value was 20.

And the “Plant response rating: Bromegrass, Downy” value [7, 12]?
The value was 30.

What about the “Plant response rating: Bromegrass, Downy” value [7, 13] of the same compound?
The value was 40.

What about the “Plant response rating, Bromegrass, Downy” value ([7]; 16 g ai/ha, scale 0 to 100) of the same compound?
Its value is 5.

What about the “Plant response rating: Oilseed Rape” value [8, 10] of the same compound?
The value was 90.

What about the “Plant response rating: Oilseed Rape” value [8, 11] of the same compound?
Its value is 98.

What about the “Plant response rating: Oilseed Rape” value [8, 12] of the same compound?
Its value is 100.

What about the “Plant response rating: Oilseed Rape” value [8, 13] of the same compound?
The value was 100.

And the “Plant response rating, Oilseed Rape” value ([8]; 16 g ai/ha, scale 0 to 100)?
Its value is 70.

Which “Plant response rating, Nightshade” value ([9]; 31 g ai/ha, scale of 0 to 100, 0 is no effect, 100 is complete control) does the source give for `Fc1ccc(-n2nc(Cc3ccnc(C(F)(F)F)c3)c(OCC(F)(F)F)n2)cc1` [Compound 142] here?
Its value is 95.

What about the “Plant response rating, Nightshade” value ([9]; 62 g ai/ha, scale of 0 to 100, 0 is no effect, 100 is complete control) of the same compound?
The value was 95.

And the “Plant response rating, Nightshade” value [9, 12]?
Its value is 98.

What about the “Plant response rating, Nightshade” value ([9]; 250 g ai/ha, scale 0 to 100, 0 no effect, 100 complete control) of the same compound?
The value was 98.

And the “Plant response rating, Soybean” value [3, 14]?
Its value is 50.

And the “Plant response rating, Soybean” value [3, 15]?
The value was 55.

And the “Plant response rating, Soybean” value [3, 16]?
Its value is 55.

And the “Plant response rating, Soybean” value [3, 17]?
The value was 55.

And the “Plant response rating, Soybean” value [3, 18]?
The value was 0.

And the “Plant response rating, Soybean” value [3, 19]?
Its value is 5.

And the “Plant response rating, Soybean” value [3, 20]?
Its value is 5.

And the “Plant response rating, Soybean” value [3, 21]?
Its value is 20.

What about the “Plant response rating, Foxtail, Giant” value [4, 14] of the same compound?
The value was 20.

What about the “Plant response rating, Foxtail, Giant” value [4, 15] of the same compound?
The value was 75.

What about the “Plant response rating, Foxtail, Giant” value [4, 16] of the same compound?
The value was 80.

What about the “Plant response rating, Foxtail, Giant” value [4, 17] of the same compound?
Its value is 90.

What about the “Plant response rating, Foxtail, Giant” value [4, 18] of the same compound?
Its value is 100.

And the “Plant response rating, Foxtail, Giant” value [4, 19]?
The value was 100.

What about the “Plant response rating, Foxtail, Giant” value [4, 20] of the same compound?
Its value is 100.

And the “Plant response rating, Foxtail, Giant” value [4, 21]?
Its value is 100.

— patent US9302999B2, “Substituted triazoles as herbicides” (E. I. DU PONT DE NEMOURS AND COMPANY, priority 2012, dated 2016)
